Assay results taken from US20090264371A1, “ANTIPROLIFERATIVE PEPTIDES AND ANTIBODIES FOR THEIR DETECTION” (BIOINCEPT LLC, priority 2004, published 2009).

Legend:
[1] = system: renal cancer cells (surgical specimen); assay: Proliferation of cells from a surgical renal cancer specimen; format: cell-based; details: about 24-30 hrs; chemotherapies at high concentrations of approximately 10-100 fold
Protocol: Cells were incubated with purified developmental peptides for approximately 24-30 hrs. While developmental peptides were effective in inhibiting proliferation of the renal cancer cells, two standardly used chemotherapies (a 5-FU regimen and a vinblastine regimen) remained ineffective, even at a high concentrations of approximately 10-100 fold.

[2] = system: renal carcinoma cells (RCC); assay: Viability of short-term cultured renal carcinoma cells (P1 and JC-1 staining); format: cell-based
Protocol: Mitochondrial membrane potential. A stock solution of JC-1 dye (100 μg/ml in DMSO) is prepared. Cells are preincubated with the peptide of SEQ ID NO: 2 for up to 24 hours. JC-1 reagent is diluted just prior to use. For each assay, 100 μl of stock solution is diluted to 1 ml using pre-warmed cell culture medium and the solution is vortexed. 40 μl of diluted JC-1 is added to each well and incubated at 37° C. in 5% CO2 incubator for 25-30 min. Medium is replaced with pre-warmed PBS. Samples are detected by fluorescent signals by using flow cytometry results compared to buffer only treated controls. JC-1 reagent accumulates in the intact mitochondria, giving off a bright red fluorescence. In apoptotic cells, JC-1 reagent cannot accumulate in the mitochondria due to the altered mitochondrial membrane potential.
FIG. 2 further confirms developmental peptides effectiveness as compared to chemotherapy. Short-term cultured renal carcinoma cells (RCC) were incubated with developmental peptides. […] While not wishing to be bound to theory, the anti-proliferative effect of developmental peptides is thought to be due to the developmental peptides induction of mitochondrial alterations in the malignant cells, as analyzed using JC-1 staining, a process which invariably leads to cell death. […] Thus, low concentrations of developmental peptides may enhance the efficacy of a chemotherapy regimen.

[3] = system: human mammary epithelial cells (HMEC); assay: 3H thymidine labeling of DNA in normal HMEC cells; format: cell-based; details: about 1.5-12 mg/ml, low concentrations
Protocol: 3H Thymidine assay. In particular the tritiated thymidine assays were performed as follows. 10,000 cells were plated in 1 ml of RPMI 1640 medium containing 10% fetal bovine serum in 24-well plates. The cultures were incubated for 24 hours at 37 C, 5% carbon dioxide. The peptide was added to each corresponding well at different doses and allowed to incubate for 72 hours. The cells were then exposed to tritiated thymidine at a concentration of 1 uCi/ml (ICN, cat #2403905) and incubated at 37 C for 4 hours. The cells were washed twice with cold PBS to remove non-incorporated thymidine. The cells were treated twice with 10% trichloracetic acid (Fisher, lot #94276913), 1 ml per well. The cells were then disrupted by treatment with 10% sodium lauryl sulfate (Sigma, Cat#L-3771) at 500 ul/well. Cell from each well were transferred to a scintillation vial and counted in a Beckman Counter Model LS-133 scintillation counter.
A breast cancer cell line (MCF-7) and human mammary epithelial cells (HMEC) were incubated with the 9 AA developmental peptides of SEQ ID NO: 2. 3H thymidine labeling of DNA was used to analyze the anti-proliferative effect of developmental peptides using concentrations in the range of about 1.5-12 mg/ml developmental peptides. […] The antiproliferative response was repeated and analyzed using the XTT method. […]

rat embryo cultures = assay: Rat embryo culture teratogenicity (roller bottle system); details: 48 hours, about 500 μg/ml
Protocol: Rat embryo cultures were exposed to synthetic developmental peptides of about 9 AA (about 500 μg/ml) for 48 hours (FIG. 6).

[4] = system: MCF-7 breast cancer cells; assay: 3H thymidine incorporation assay on MCF-7 cells; format: cell-based; details: about 1.5-12 mg/ml, low concentrations
Protocol: Isolation of the 9AA peptide from the adult mammalian liver. Fresh adult rabbit liver tissues were collected and homogenized on ice with H20. The samples were centrifuged at 15,000 g and the sample was filtered using Amicon filters 3000-10000 Da, <3000-500, and <500. Fractions collected were tested for activity using the MCF-7 cells. […] Separation by reverse phase HPLC yielded a 90% inhibition of cancer cells.
In a similar manner adult frozen porcine liver was collected and homogenized with H2O at 4° C. The suspension was centrifuged at 15,000 g and the pellet discarded. The suspension was filtered and the fraction <3000 Da was collected and run using reversed phase HPLC C18 column with a 0-95% acetonitrile gradient. […] Antiproliferative activity was tested by collecting the fractions, drying and suspending the sample in media and adding to MCF7 cells for 48 hours. Incorporation of 3H thymidine into cellular DNA of MCF-7 breast cancer cells was used to determine the anti-proliferative activity.
3H Thymidine assay. […] Cell from each well were transferred to a scintillation vial and counted in a Beckman Counter Model LS-133 scintillation counter.
A breast cancer cell line (MCF-7) and human mammary epithelial cells (HMEC) were incubated with the 9 AA developmental peptides of SEQ ID NO: 2. […] The antiproliferative response was repeated and analyzed using the XTT method. […]

HMEC cells = assay: XTT method on HMEC cells; format: cell-based, human; details: about 1.5 mg/ml
Protocol: (§1) XTT method. A commercial (Roche, N.J.) kit was used. At the end of the experiment the XTT labeling mixture was coupled to the electron reagent coupling and was added to the cultured cells in microplate for 4 hours. The microplate was placed in an ELISA microplate reader (Molecular devices, Menlo Park, Calif.).
(§2) A breast cancer cell line (MCF-7) and human mammary epithelial cells (HMEC) were incubated with the 9 AA developmental peptides of SEQ ID NO: 2. 3H thymidine labeling of DNA was used to analyze the anti-proliferative effect of developmental peptides using concentrations in the range of about 1.5-12 mg/ml developmental peptides. […] The antiproliferative response was repeated and analyzed using the XTT method. […] Finally, this same analysis was repeated using resistant prostate cancer cells, the PC3 cell line, which are androgen receptor negative cells. Developmental peptides was added to the cells using concentrations of about 6-25 mg/ml for 24 hours in the presence of 3H thymidine to measure the effect of developmental peptides on cell proliferation.

[5] = system: PC3 cell line (androgen receptor negative prostate cancer cells); format: cell-based; details: about 12-25 mg/ml, 24 hours
MCF-7 cells = assay: XTT method on MCF-7 cells; format: cell-based; details: about 1.5 mg/ml
Protocol: as §1, §2

## O=c1[nH]cc(F)c(=O)[nH]1 [5-FU]
[1]
  inhibition of renal cancer cell proliferation: ineffective

## COc1cc([C@@H]2c3cc4c(cc3[C@@H](O[C@@H]3O[C@@H]5CO[C@@H](C)O[C@H]5[C@H](O)[C@H]3O)[C@H]3COC(=O)[C@H]23)OCO4)cc(OC)c1O [etoposide]
[2]
  cell viability / cell death in RCC, P1 staining: failed to induce cell death

## CN(Cc1cnc2nc(N)nc(N)c2n1)c1ccc(C(=O)N[C@@H](CCC(=O)O)C(=O)O)cc1 [methotrexate]
[2]
  cell viability / cell death in RCC, P1 staining: failed to induce cell death

## CC(=O)O[C@H]1C(=O)[C@@]2(C)[C@H]([C@H](OC(=O)c3ccccc3)[C@]3(O)C[C@H](OC(=O)[C@H](O)[C@@H](NC(=O)c4ccccc4)c4ccccc4)C(C)=C1C3(C)C)[C@]1(OC(C)=O)CO[C@@H]1C[C@@H]2O [paclitaxel]
[2]
  cell viability / cell death in RCC, P1 staining: failed to induce cell death

## CC[C@]1(O)C[C@@H]2CN(CCc3c([nH]c4ccccc34)[C@@](C(=O)OC)(c3cc4c(cc3OC)N(C)[C@H]3[C@@](O)(C(=O)OC)[C@H](OC(C)=O)[C@]5(CC)C=CCN6CC[C@]43[C@@H]65)C2)C1 [vinblastine]
[1]
  inhibition of renal cancer cell proliferation: ineffective

## H-VLGKRIKGT-OH [9 AA developmental peptides, N-Val-Leu-Gly-Lys-Arg-Ile-Lys-Gly-Thr-OH]
[3]
  effect on normal HMEC cells, 3H thymidine: absence of any harmful or negative effect
Rat embryo cultures
  development of viscera yolk sac and embryo: developed normally
  teratogenicity: not teratogenic
[4]
  antiproliferative response, 3H thymidine: antiproliferative response was maintained
HMEC cells
  effect on HMEC cells, XTT: minimal effect
[5]
  inhibition of PC3 proliferation, 3H thymidine: approximately 98%
MCF-7 cells
  antiproliferative effect, XTT: maintained the antiproliferative effect
